Laboratory results reported in patent publication EP0608858A1, “5-Membered heterocycles as aggregation inhibitors” (Dr. Karl Thomae GmbH, priority 1993, dated 1994).
Structures can show the parent of a compound that is named as a salt.

What was measured:
[1] = test system: Humanthrombozyten; test: Competitive binding of ³H-BIBU 52 / test substance to human platelets; settings: human platelets in plasma, ³H-BIBU 52 5 nM, 20 min at room temperature; read-out: Kompetitive Bindung ³H-BIBU 52 Textsubstanz an Humanthrombozyten IC₅₀
Source text: 1. Kompetitive Bindung ³H-BIBU 52/Testsubstanz an Humanthrombozyten:
Eine Suspension von Humanthrombozyten in Plasma wird mit ³H-BIBU 52 [= (3S,5S)-5-[(4'-Amidino-4-biphenylyl)oxymethyl]-3-[(carboxyl)methyl]-2-pyrrolidinon[3-³H-4-biphenylyl]], das den literaturbekannten Liganden ¹²⁵I-Fibrinogen ersetzt, (siehe deutsche Patentanmeldung P 42 14 245.8 der gleichen Anmeldezin vom 30. 04. 1992, internes Zeichen: Case 5/1093-FL) und verschiedenen Konzentrationen der zu testenden Substanz inkubiert. Der freie und gebundene Ligand wird durch Zentrifugation getrennt und durch Szintillationszählung quantitativ bestimmt. Aus den Meßwerten wird die Hemmung der ³H-BIBU 52-Bindung durch die Testsubstanz bestimmt.
Hierzu wird aus einer Antikubitalvene Spenderblut entnommen und mit Trinatriumzitrat antikoaguliert (Endkonzentration 13 mM) . Das Blut wird 10 Minuten bei 170 x g zentrifugiert und das überstehende plättchenreiche Plasma (PRP) abgenommen. Das Restblut wird zur Gewinnung von Plasma nocheinmal scharf abzentrifugiert. Das PRP wird mit autologem Plasma 1:10 verdünnt. 750 µl werden mit 50 µl physiologischer Kochsalzlösung, 100 µl Testsubstanzlösung, 50 µl ¹⁴C-Sucrose (3.700 Bq) und 50 µl ³H-BIBU 52 (Endkonzentration: 5 nM.) bei Raumtemperatur 20 Minuten inkubiert. Zur Messung der unspezifischen Bindung wird anstelle der Testsubstanz 5 µl BIBU 52 (Endkonzentration: 30 µM) eingesetzt. Die Proben werden 20 Sekunden bei 10000 x g zentrifugiert und der Überstand abgezogen. 100 µl hiervon werden zur Bestimmung des freien Liganden gemessen. Das Pellet wird in 500 µl 0,2N NaOH gelöst, 450 µl werden mit 2 ml Szintillator und 25 µl 5N HCl versetzt und gemessen. Das im Pellet noch verbliebene Restplasma wird aus dem ¹⁴C-Gehalt bestimmt, der gebundene Ligand aus der ³H-Messung. Nach Abzug der unspezifischen Bindung wird die Pelletaktivität gegen die Konzentration der Testssubstanzaufgetragen und die Konzentration für eine 50%ige Hemmung der Bindung ermittelt.

[2] = test system: Thrombozytenaggregation; test: Collagen-induced platelet aggregation (Born and Cross) in platelet-rich plasma; assay type: cell-based, gesunder Versuchspersonen; settings: human platelet-rich plasma, 10 min preincubation with substance at 37°C, read-out: Hemmung der Plättchenaggregation EC₅₀
Source text: 2. Antithrombotische Wirkung
Die Thrombozytenaggregation wird nach der Methode von Born und Cross (J. Physiol. 170, 397 (1964)) in plättchenreichem Plasma gesunder Versuchspersonen gemessen. Zur Gerinnungshemmung wird das Blut mit Natriumcitrat 3,14 % im Volumenverhältnis 1:10 versetzt.
Collagen-induzierte Aggregation
Der Verlauf der Abnahme der optischen Dichte der Plättchensuspension wird nach Zugabe der aggregationsauslösenden Substanz photometrisch gemessen und registriert. Aus dem Neigungswinkel der Dichtekurve wird auf die Aggregationsgeschwindigkeit geschlossen. Der Punkt der Kurve, bei dem die größte Lichtdurchlässigkeit vorliegt, dient zur Berechnung der "optical density".
Die Collagen-Konzentration wird möglichst gering gewählt, aber doch so, daß sich eine irreversibel verlaufende Reaktionskurve ergibt. Verwendet wird das handelsübliche Collagen der Firma Hormonchemie, München. Vor der Collagen-Zugabe wird das Plasma jeweils 10 Minuten mit der Substanz bei 37°C inkubiert.
Aus den Konzentrations-Wirkungskurven wird die EC₅₀ berechnet, die die Konzentration beschreibt, bei der die Änderung der "optical density" halbmaximal gehemmt ist.

[3] = test system: Mäusen; test: Tolerability after intravenous administration to mice; assay type: in vivo; settings: 30 mg/kg, 3 mice each
[4] = test system: Humanthrombozyten; test: Ex vivo inhibition of collagen-induced aggregation of human platelets by rat plasma obtained after oral dosing; assay type: in vivo; settings: rat plasma obtained after oral 10 mg/kg, after 3 hours
Protocol: Außerdem erzielt man beispielsweise mit dem nach peroraler Gabe vom 10 mg/kg der Verbindung des Beispiels 2(19) gewonnenen Rattenplasma ex vivo nach 3 Stunden eine 80%ige Hemmung der durch Kollagen induzierten Aggregration von Humanthrombozyten.

Structure (SMILES)	IC50 [1]	EC50 [2]	Tiere gestorben [3]	Hemmung der durch Kollagen induzierten Aggregration von Humanthrombozyten [4]
COC(=O)CCNC(=O)c1nnc(-c2ccc(C3CCNCC3)cc2)s1 [Beispiel 2, 2-[[2-(Methoxycarbonyl)-ethyl]-aminocarbonyl]-5-[4-(4-piperidyl)-phenyl]-1,3,4-thiadiazol-hydrochlorid]	24 µM	3 µM	–	–
Cl.O=C(O)CCCCc1nnc(-c2ccc(C3CCNCC3)cc2)s1 [Beispiel 5, 2-(4-Carboxy-butyl)-5-[4-(4-piperidyl)-phenyl]-1,3,4-thiadiazol-hydrochlorid]	0.51 µM	0.32 µM	keine Tiere gestorben	–
Cl.O=C(O)[C@H]1CC[C@H](c2nnc(-c3ccc(C4CCNCC4)cc3)s2)CC1 [5(3), 2-(trans-4-Carboxy-cyclohexyl)-5-[4-(4-piperidyl)-phenyl]-1,3,4-thiadiazol-hydrochlorid]	0.011 µM	0.1 µM	keine Tiere gestorben	–
COC(=O)[C@H]1CC[C@H](c2nnc(-c3ccc(C4CCNCC4)cc3)s2)CC1 [2(3), 2-[trans-4-(Methoxycarbonyl)-cyclohexyl)-5-[4-(4-piperidyl)-phenyl]-1,3,4-thiadiazol-hydrochlorid]	0.55 µM	0.38 µM	–	–
CCOC(=O)[C@H]1CC[C@H](c2nnc(-c3ccc(C4CCNCC4)cc3)s2)CC1.Cl [2(19), 2-[trans-4-(Ethoxycarbonyl)-cyclohexyl]-5-[4-(4-piperidyl)-phenyl]-1,3,4-thiadiazol-hydrochlorid]	–	–	–	80%

Now from value to compound, other results behind:

IC50 [1]	EC50 [2]	Structure (SMILES)	Tiere gestorben [3]	Hemmung der durch Kollagen induzierten Aggregration von Humanthrombozyten [4]
0.4 µM	0.88 µM	O=C(O)CCNC(=O)c1nnc(-c2ccc(C3CCNCC3)cc2)s1 [Beispiel 3, 2-[(2-Carboxyethyl)-aminocarbonyl]-5-[4-(4-piperidyl)-phenyl]-1,3,4-thiadiazol-hydrochlorid]	–	–
6.8 µM	4.4 µM	O=C(O)CCCCc1nnc(-c2ccc(C3CCNCC3)cc2)o1 [3(1), 2-(4-Carboxybutyl)-5-[4-(4-piperidyl)-phenyl]-1,3,4-oxadiazol]	–	–
0.0016 µM	0.04 µM	CCCCS(=O)(=O)NC(Cc1cn(-c2ccc(-c3ccc(C(=N)N)cc3)nn2)cn1)C(=O)O (centres unmarked) [3(3), 1-[6-(4-Amidino-phenyl)-3-pyridazinyl]-4-[2-(n-butan-sulfonylamino)-2-carboxy-ethyl]-imidazol-hydrochlorid]	–	–
